Structures can show the parent of a compound that is named as a salt. A value given as a limit tells only on which side of the number the result lay.

In general, IC50 refers to the midpoint of a concentration-inhibition curve. As usually defined, the solubility is the concentration that dissolves in the medium under given conditions. Low values mean a poorly soluble substance, high ones a readily soluble substance.

Series [1] addresses human FXa (Homo sapiens, UniProt P00742). The experiment in a line: Measurement of Activated Blood Coagulation Factor X (FXa) Inhibition Activity. Type of series: biochemical. The settings on record: substrate S-2222, 37° C., 15 minutes. Here is the method: Measurement of Activated Blood Coagulation Factor X (FXa) Inhibition Activity
A 180 μl portion of physiological saline solution containing a compound to be tested was mixed with 200 μl of Tris-HCl buffer (pH 8.4) and 100 μl of 1 mM S-2222 (KabiVitrum AB) aqueous solution, and the mixture was incubated at 37° C. 20 μl of Tris-HCl buffered saline (pH 7.45) containing 0.6 unit/ml of human FXa was added to the mixture. After 15 minutes of incubation at the same temperature, the reaction was stopped by adding 100 μl of 60% acetic acid, and absorbance of the reaction mixture was measured. A reaction mixture with no addition of a test compound was used as a blank, and another reaction mixture in which 60% acetic acid was added prior to the addition of FXa was used as a control.

Series [2] addresses T1, thrombin (Bos taurus, UniProt P00735).
T1 construct: thrombin (for topical application use, Sankyo Co., Ltd.); purchased Sankyo Co., Ltd
The experiment in a line: Measurement of Thrombin Inhibition Activity. Type of series: biochemical. Here is the method:
Measurement of Thrombin Inhibition Activity
A 100 μl portion of Tris-HCl buffered saline (pH 7.45) (TBS) containing 6 mg/ml of fibrinogen (Type 1, Daiichi Pure Chemicals Co., Ltd.) was mixed with 100 μl of physiological saline solution. At 37° C., 100 μl of Tris-HCl buffered saline (pH 7.45) (TBS) containing varying amounts of thrombin (for topical application use, Sankyo Co., Ltd.) was added to the mixture prepared above to measure clotting time using CLOTEC (Sanko Junyaku Co., Ltd.) and to prepare a calibration curve.

Series [3] relates to human blood plasma (clotting time). The experiment in a line: Measurement of Anticoagulant Activity (plasma clotting time, CT2). In kind it is biochemical. The following applies: concentration which doubles the control clotting time, 37° C. The protocol:
Measurement of Anticoagulant Activity A blood plasma sample was prepared from human blood using a centrifuge. […] Thereafter, clotting time was measured using CLOTEC (Sanko Junyaku Co., Ltd.). A clotting time measured without adding a compound to be tested was used as a control, and a concentration of the test compound which doubles the control clotting time was calculated (hereinafter referred to as "CT2") as an index of the anticoagulant activity.

The subject of series [4] is activated partial thromboplastin time (APTT). The experiment in a line: Measurement of Anticoagulant Activity in Oral Administration (APTT). Type of series: in vivo, male STD:Wistar rat. The settings on record: rat, 100 mg/kg. Here is the method: Measurement of Anticoagulant Activity in Oral Administration
An aqueous solution of each compound to be tested was administered orally to each male STD:Wistar rat individual under an anesthetic, at a dose of 10 ml/kg body weight. Blood samples were collected periodically and blood plasma preparations were obtained from the samples to measure activated partial thromboplastin time (APTT). In the same manner, APTT was measured by administering pure water and used as a control. A test/control APTT ratio was calculated and used as an index of the anticoagulant activity.

Series [5] is described as follows: Measurement of Solubility in Water.
Experimental: A fixed amount of water was added to a varying amounts of each sample, and the mixture was agitated on a shaker at 25° C. for 10 minutes.

Sequence of human FXa (P00742 235-488 limits assumed): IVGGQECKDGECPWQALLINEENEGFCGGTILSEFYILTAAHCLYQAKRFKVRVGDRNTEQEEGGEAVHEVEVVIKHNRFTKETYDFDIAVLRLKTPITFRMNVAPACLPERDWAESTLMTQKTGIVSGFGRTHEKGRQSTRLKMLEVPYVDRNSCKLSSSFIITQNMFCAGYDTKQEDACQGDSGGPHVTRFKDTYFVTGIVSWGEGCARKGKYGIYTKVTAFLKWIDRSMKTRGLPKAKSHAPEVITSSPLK
Sequence of human FXa (P00742 41-179 limits assumed): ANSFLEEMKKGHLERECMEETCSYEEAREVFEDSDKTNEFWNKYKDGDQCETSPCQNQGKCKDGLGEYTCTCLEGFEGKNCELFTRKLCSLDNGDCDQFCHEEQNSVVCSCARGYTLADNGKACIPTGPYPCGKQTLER

Turning to `CC(=N)N1CCC[C@H]1COc1ccc(C(Cc2cc3cc(C(=N)N)ccc3s2)C(=O)O)cc1.Cl.Cl` (single isomer, unassigned; (+)) [Inventive Example 41, Dihydrochloride], the IC50 came out at 32 nM in series [1] and 9000 nM in series [2].

In the case of `CC(=N)N1CCC[C@H]1COc1ccc(C(Cc2cc3cc(C(=N)N)ccc3s2)C(=O)O)cc1.Cl.Cl` (single isomer, unassigned; (+)) [Inventive Example 41], in series [3], the “Anti-Coagulation CT2” value came out at 0.32 µM.

With `CC(=N)N1CCC(Oc2ccc(C(Cc3ccc4ccc(C(=N)N)cc4c3)C(=O)O)cc2)CC1.Cl.Cl` (single isomer, unassigned; (+)) [Inventive Example 43, (+)-2-[4-[(1-acetimidoyl-4-piperidinyl)oxy]phenyl]-3-(7-amidino-2-naphthyl)propionic Acid Dihydrochloride], the “Anti-Coagulation CT2” value in series [3] was found to be 0.18 µM. The results for the IC50 in series [1] and in series [2] were 13 nM and more than 400000 nM, respectively.

In the case of `Cl.Cl.N=C(N)c1ccc2cc(CC(C(=O)O)c3ccc(O[C@H]4CCNC4)cc3)[nH]c2c1` (single isomer, unassigned; (+)) [Inventive Example 48, Dihydrochloride], the IC50 in series [1] came out at 360 nM; in series [2] it was 50000 nM.

As to `Cl.Cl.N=C(N)c1ccc2cc(CC(C(=O)O)c3ccc(O[C@H]4CCNC4)cc3)[nH]c2c1` (single isomer, unassigned; (+)) [Inventive Example 48], the “Anti-Coagulation CT2” value in series [3] turned out to be 3 µM. The “Test/Control APTT Ratio” value was 1.46 in series [4] (0.5 hr), 1.42 in series [4] (1 hr), 1.41 in series [4] (2 hr) and 1.18 in series [4] (4 hr).

In series [5], `Cl.Cl.N=C(N)c1ccc2oc(C(Cc3ccc(O[C@H]4CCNC4)cc3)C(=O)O)cc2c1` (stereo partly drawn) [Inventive Example 21, 2-(5-amidino-2-benzofuranyl)-3-[4-[((3S)-3-pyrrolidinyl)-oxy]phenyl]propionic Acid Dihydrochloride] came in with a solubility at 10 min not below 600 mg/mL.

As to `Cl.Cl.N=C(N)c1ccc2sc(CC(CC(=O)O)c3ccc(O[C@H]4CCNC4)cc3)cc2c1` (stereo partly drawn) [Inventive Example 61, 4-(5-amidinobenzo[b]thien-2-yl)-3-[4-[((3S)-3-pyrrolidinyl)oxy]phenyl]butyric Acid Dihydrochloride], the “Test/Control APTT Ratio” value in series [4] (0.5 hr) was determined as 1.40; in series [4] (1 hr) it was 1.28; in series [4] (2 hr), 1.21; in series [4] (4 hr), 1.09.

For the compound `Cl.Cl.N=C(N)c1ccc2[nH]c(CC(C(=O)O)c3ccc(O[C@H]4CCNC4)cc3)cc2c1` (stereo partly drawn) [Inventive Example 68, 3-(5-amidino-2-indolyl)-2-[4-[((3S)-3-pyrrolidinyl)oxy]-phenyl]propionic acid Dihydrochloride], the “Anti-Coagulation CT2” value in series [3] turned out to be 1.45 µM. Moreover, the figures for the IC50 in series [1] and in series [2] were 170 nM and 190000 nM, respectively.

Take `CCn1c(CC(C(=O)O)c2ccc(O[C@H]3CCNC3)cc2)cc2ccc(C(=N)N)cc21.Cl.Cl` (stereo partly drawn) [Inventive Example 73, 3-(6-amidino-1-ethyl-2-indolyl)-2-[4-[((3S)-3-pyrrolidinyl)oxy]phenyl]propionic Acid Dihydrochloride]: in series [5], the solubility at 10 min was not below 450 mg/mL.

Regarding `CC(=N)N1CC[C@H](Oc2ccc(C(Cc3nc4cc(C(=N)N)ccc4s3)C(=O)O)cc2)C1.Cl.Cl` (stereo partly drawn) [Inventive Example 89, 2-[4-[((3S)-1-acetimidoyl-3-pyrrolidinyl)oxy]phenyl]-3-(5-amidino-2-benzothiazolyl)propionic Acid Dihydrochloride], the “Anti-Coagulation CT2” value in series [3] amounted to 5 µM. Also, the IC50 in series [1] is 600 nM; in series [2] it was more than 600000 nM. The “Test/Control APTT Ratio” value in series [4] (0.5 hr) was 1.24; in series [4] (1 hr), 1.22; in series [4] (2 hr), 1.17; in series [4] (4 hr), 1.14.

In the case of `CCCCCC(=N)N1CC[C@H](Oc2ccc(C(Cc3cc4cc(C(=N)N)ccc4s3)C(=O)O)cc2)C1.Cl.Cl` (stereo partly drawn) [Inventive Example 94, 3-(5-amidinobenzo[b]thien-2-yl)-2-[4-[((3S)-1-n-hexanimidoyl-3-pyrrolidinyl)oxy]phenyl]propionic Acid Dihydrochloride], the “Anti-Coagulation CT2” value in series [3] worked out at 1.1 µM. The IC50 in series [1] came out at 100 nM; in series [2], 370000 nM.

Take `Cl.Cl.N=C(N)c1ccc2sc(CC(C(=O)O)c3ccc(O[C@H]4CCN(C(=N)C5CC5)C4)cc3)cc2c1` (stereo partly drawn) [Inventive Example 95, 3-(5-amidinobenzo[b]thien-2-yl)-2-[4-[((3S)-1-cyclopropanecarboximidoyl-3-pyrrolidinyl)oxy]phenyl]propionic Acid Dihydrochloride]: in series [3], the “Anti-Coagulation CT2” value was determined as 0.8 µM. Further, the IC50 in series [1] was 160 nM; in series [2], 26000 nM.

`CC(=N)N1CCC[C@H]1COc1ccc(C(Cc2cc3cc(C(=N)N)ccc3s2)C(=O)O)cc1.Cl.Cl` (stereo partly drawn) [Inventive Example 96, 2-[4-[((2S)-1-acetimidoyl-2-pyrrolidinyl)methoxy]phenyl]-3-(5-amidinobenzo[b]thien-2-yl)propionic Acid Dihydrochloride]: the “Anti-Coagulation CT2” value in series [3] stood at 0.54 µM. Further, the IC50 in series [1] turned out to be 44 nM; in series [2], 29000 nM. Moreover, the “Test/Control APTT Ratio” value in series [4] (0.5 hr) came out at 1.68; in series [4] (1 hr), 1.64; in series [4] (2 hr), 1.57; in series [4] (4 hr) it was 1.42. Moreover, in series [5], the solubility at 10 min is not below 400 mg/mL.

With `CC(=N)N1CCC(Oc2ccc(C(Cc3cc4cc(C(=N)N)ccc4s3)C(=O)O)cc2)CC1.Cl.Cl` (stereo not shown) [Inventive Example 97, 2-[4-[(1-acetimidoyl-4-piperidinyl)oxy]phenyl]-3-(5-amidinobenzo[b]thien-2-yl)propionic acid Dihydrochloride], the “Anti-Coagulation CT2” value in series [3] is 0.23 µM. Further, the IC50 in series [1] was 45 nM; in series [2], 170000 nM.

Regarding `CCn1c(CC(C(=O)O)c2ccc(OC3CCN(C(C)=N)CC3)cc2)cc2ccc(C(=N)N)cc21.Cl.Cl` (stereo not shown) [Inventive Example 98, 2-[4-[(1-acetimidoyl-4-piperidinyl)oxy]phenyl]-3-(6-amidino-1-ethyl-2-indolyl)propionic Acid Dihydrochloride], the “Anti-Coagulation CT2” value in series [3] is 0.3 µM. The IC50 came out at 11 nM in series [1] and 2500 nM in series [2]. In addition, the “Test/Control APTT Ratio” value in series [4] (0.5 hr) amounted to 4.07; in series [4] (1 hr), 3.96; in series [4] (2 hr) it was 3.37; in series [4] (4 hr), 2.19.

Take `CC(=N)N1CC[C@H](Oc2ccc(C(CC(=O)O)Cc3cc4cc(C(=N)N)ccc4s3)cc2)C1.Cl.Cl` (stereo partly drawn) [Inventive Example 104, 3-[4-[((3S)-1-acetimidoyl-3-pyrrolidinyl)oxy]phenyl]4-(5-amidinobenzo[b]thien-2-yl)butyric Acid Dihydrochloride]: in series [3], the “Anti-Coagulation CT2” value worked out at 0.64 µM. The figures for the IC50 in series [1] and in series [2] were 86 nM and 230000 nM, respectively. In addition, the solubility at 10 min in series [5] was not below 450 mg/mL.

In the case of `CCn1c(CC(C(=O)O)c2ccc(O[C@H]3CCN(C(C)=N)C3)cc2)cc2ccc(C(=N)N)cc21` (stereo partly drawn) [Inventive Example 105, 2-[4-[((3S)-1-(acetimidoyl-3-pyrrolidinyl)oxy]phenyl]-3-(6-amidino-1-ethyl-2-indolyl)propionic Acid Dihydrochloride], the “Anti-Coagulation CT2” value in series [3] stood at 0.35 µM. Also, the figures for the IC50 in series [1] and in series [2] were 54 nM and 6800 nM, respectively. Besides, the “Test/Control APTT Ratio” value in series [4] (0.5 hr) came out at 2.69; in series [4] (1 hr) it was 3.60; in series [4] (2 hr), 2.41; in series [4] (4 hr), 1.66.

For `CC(=N)N1CC[C@H](Oc2ccc(CC(C(=O)O)c3cc4cc(C(=N)N)ccc4s3)cc2)C1` (stereo partly drawn) [Inventive Example 106, 3-[4-[((3S)-1-acetimidoyl-3-pyrrolidinyl)oxy]phenyl]-2-(5-amidinobenzo[b]thien-2-ylpropionic Acid Dihydrochloride], in series [3], the “Anti-Coagulation CT2” value is 2.3 µM. Further, the figures for the IC50 in series [1] and in series [2] were 560 nM and 100000 nM, respectively.
